Values quoted from earlier work in article PMC4224523 (Molecular Pharmaceutics, 2014).

Conditions: general statement in introduction

Compound: FC1(F)OC(F)(F)C(F)(F)OC(F)(F)C(F)(F)OC(F)(F)C(F)(F)OC(F)(F)C(F)(F)OC1(F)F [PFCE, Perfluoro-15-crown-5-ether]
- solubility in solvents: insoluble in most solvents
